Assay results as given in ChEMBL document CHEMBL3832077, “DailyMed|setid=dc3d3905-2f08-4b71-b949-53f49fb3ea10 | METRONIDAZOLE- metronidazole tablet|Lake Erie Medical DBA Quality Care Products LLC”.

How the values were obtained:
[1] = (§1) Evaluation of pharmacokinetic parameters for Metronidazole following oral administration of Metronidazole tablets; type: ADME, organism-based; design: dose 250 mg, dose 2000 mg, dose 500 mg, route oral; conditions: human, in vivo, dosed compound id 31, dosed compound name METRONIDAZOLE, tissue Plasma
Homo sapiens = experiment: as §1; type: ADME, organism-based; design: dose 250 mg, dose 2000 mg, dose 500 mg, route oral; conditions: in vivo, po, dosed compound id 31, dosed compound name METRONIDAZOLE, tissue Plasma

Work on `Cc1ncc([N+](=O)[O-])n1CCO` [METRONIDAZOLE] yielded a Tmax [1] of 1 to 2 h and a CL_renal (Homo sapiens) of 10 mL/min/1.73 m2.
